According to paper PMC6556898 (Biomaterials, 2018):

How the values were obtained:
[1] = system: human monocyte-derived macrophages (MDM); experiment: MTT cell vitality assay; format: cell-based; conditions: 12 hours
HIV-1ADA = experiment: Antiretroviral activity: reverse transcriptase; format: cell-based

- cell vitality (MTT) ([1]; 200 μM (RPV), highest concentration tested): 37.9%
- effect on cell vitality (MTT) ([1]; up to 50 μM (RPV)): little effect on cell vitality
- RT activity (progeny HIV virion production) (HIV-1ADA; 6.25 μM for 8 hours, challenge at day 5, MOI 0.1, 10 days post infection): virtually no protection
- RT activity (progeny HIV virion production) (HIV-1ADA; 12.5 mM RPV equivalents (printed) for 8 hours, challenge at day 5): no protection
SMILES: Cc1cc(/C=C/C#N)cc(C)c1Nc1ccnc(Nc2ccc(C#N)cc2)n1 [native RPV, rilpivirine]
